Reference: patent US8110681B2, “Compounds for the treatment of spinal muscular atrophy and other uses” (The United States of America as represented by the …, priority 2006, dated 2012)
Where two headings read alike, the source gives them in different places.

System: SMN2-linked luciferase-reporter gene construct
Assay: SMN splice reporter assay (SMN2-linked luciferase reporter, Example 10)
Assay type: cell-based
Settings: for EC50: SMN2-linked luciferase reporter
From the text: Cervical carcinoma cell lines were transformed with a SMN2-linked luciferase-reporter gene construct. The reporter is designed to detect shifts in the alternative splicing of SMN2 sequences. In particular, the reporter is constructed as a fusion of the alternatively spliced sequences of the SMN2 gene and the luciferase gene. Luciferase sequences are in the correct translational reading frame only when the SMN2 sequences are spliced according to the normal SMN1 mechanism (e.g., splicing to include exon 7), which allows for translation of the stable SMN protein. Compounds were tested in the assay by administering the compound to the cell line and detecting an increase in the luciferase activity. The assay is described in greater detail in Zhang et al., Gene Ther., 8, 1532-8 (2001). Compounds were administered as described in Lunn et al, Chem. & Biol, 11, 1489-1493 (2004).
The results are reported as a fold-increase over a baseline reading of transformed cells without any test compound.

[1] = maximum fold increase of reporter signal, average, read-out: SMN Splice Reporter Assay (Example 10) Avg MaxFold Increase

Row | EC50 (average) [µM] | Compound | maximal fold induction [1] | maximal fold induction (read-out: SMN Splice Reporter Assay (Example 10) Avg MaxFold Increase, maximum fold increase of reporter signal, average, heading: SMN Splice Reporter Assay Avg MaxFold Increase)
1 | – | CC(C(=O)N1CCCCC1)c1ccc(N2Cc3ccccc3C2=O)cc1 (stereo not drawn) [ALB-112078] | 1.15 | –
2 | – | CNC(=O)C(C)c1ccc(N2Cc3ccccc3C2=O)cc1 (stereo not drawn) [ALB-112079] | 1.14 | –
3 | – | CC(C(=O)OC(C)(C)C)c1ccc(N2Cc3ccccc3C2=O)c(-c2ccc(Cl)c(Cl)c2)c1 (stereo not drawn) [ALB-112080] | 1.03 | –
4 | – | Cc1ccc(-c2cc(C(C)C(=O)OC(C)(C)C)ccc2N2Cc3ccccc3C2=O)cc1 (stereo not drawn) [ALB-112081] | 1.03 | –
5 | – | COc1ccc(-c2cc(C(C)C(=O)OC(C)(C)C)ccc2N2Cc3ccccc3C2=O)cc1 (stereo not drawn) [ALB-112082] | 1.12 | –
6 | – | CCCc1cc(N2Cc3ccccc3C2=O)ccc1C(C)C(=O)O (stereo not drawn) [ALB-112083] | 1.09 | –
7 | – | CC(C(=O)O)c1ccc(N2Cc3ccccc3C2=O)cc1-c1cccs1 (stereo not drawn) [ALB-112084] | 1.11 | –
8 | – | Cc1ccc(-c2cc(C(C)C(=O)O)ccc2N2Cc3ccccc3C2=O)cc1 (stereo not drawn) [ALB-112085.] | 1.08 | –
9 | – | COc1ccc(-c2cc(C(C)C(=O)O)ccc2N2Cc3ccccc3C2=O)cc1 (stereo not drawn) [ALB-112086] | 1.08 | –
10 | – | CC(C(=O)OC(C)(C)C)c1ccc(N2Cc3ncccc3C2=O)cc1 (stereo not drawn) [ALB-112087] | 1.05 | –
11 | – | CC(C(=O)OC(C)(C)C)c1ccc(N2Cc3cccc(-c4ccc(Cl)c(Cl)c4)c3C2=O)cc1 (stereo not drawn) [ALB-112149] | 1.06 | –
12 | – | CC(C(=O)OC(C)(C)C)c1ccc(N2Cc3cccc(-c4ccccc4)c3C2=O)cc1 (stereo not drawn) [ALB-112150] | 1.1 | –
13 | – | Cc1ccc(-c2cccc3c2C(=O)N(c2ccc(C(C)C(=O)OC(C)(C)C)cc2)C3)cc1 (stereo not drawn) [ALB-112151] | 1.11 | –
14 | – | COc1ccc(-c2cccc3c2C(=O)N(c2ccc(C(C)C(=O)OC(C)(C)C)cc2)C3)cc1 (stereo not drawn) [ALB-112152] | 1.04 | –
15 | – | CC(C(=O)OC(C)(C)C)c1ccc(N2Cc3cccc(-c4ccc(Cl)cc4)c3C2=O)cc1 (stereo not drawn) [ALB-112153] | 1.02 | –
16 | – | CC(C(=O)OC(C)(C)C)c1ccc(N2Cc3cccc(-c4cccs4)c3C2=O)cc1 (stereo not drawn) [ALB-112154] | 1.11 | –
17 | 26.3 | CC(C(=O)O)c1ccc(N2Cc3cccc(-c4ccccc4)c3C2=O)cc1 (stereo not drawn) [ALB-112155] | 1.19 | –
18 | – | COc1ccc(-c2cccc3c2C(=O)N(c2ccc(C(C)C(=O)O)cc2)C3)cc1 (stereo not drawn) [ALB-112156] | 1.27 | –
19 | 20.5 | CC(C(=O)O)c1ccc(N2Cc3cccc(-c4cccnc4)c3C2=O)cc1 (stereo not drawn) [ALB-112157] | 1.2 | –
20 | 11.4 | CC(C(=O)O)c1ccc(N2Cc3cccc(-c4cccs4)c3C2=O)cc1 (stereo not drawn) [ALB-112158] | 1.24 | –
21 | – | CC(C(=O)O)c1ccc(N2Cc3ccccc3C2=O)cc1-c1ccco1 (stereo not drawn) [ALB-112160] | 1.02 | –
22 | – | CC(C(=O)O)c1ccc(N2Cc3ccccc3C2=O)c(-c2ccc(Cl)c(Cl)c2)c1 (stereo not drawn) [ALB-112161] | 1.1 | –
23 | – | CC(C(=O)OC(C)(C)C)c1ccc(N2Cc3ccccc3C2=O)c(-c2ccc(Cl)cc2)c1 (stereo not drawn) [ALB-112162] | 1.03 | –
24 | – | CC(C(=O)OC(C)(C)C)c1ccc(N2Cc3ccccc3C2=O)c(-c2ccccc2)c1 (stereo not drawn) [ALB-112163] | 1.03 | –

Row | EC50 (average) [µM] | Compound | maximal fold induction [1] | maximal fold induction (read-out: SMN Splice Reporter Assay (Example 10) Avg MaxFold Increase, maximum fold increase of reporter signal, average, heading: SMN Splice Reporter Assay Avg MaxFold Increase)
25 | – | CC(C(=O)O)c1ccc(N2Cc3ccccc3C2=O)c(-c2ccc(Cl)cc2)c1 (stereo not drawn) [ALB-112164] | 1.05 | –
26 | – | CC(C(=O)O)c1ccc(N2Cc3ccccc3C2=O)c(-c2ccccc2)c1 (stereo not drawn) [ALB-112165] | 1.15 | –
27 | – | CC(C(=O)OC(C)(C)C)c1ccc(N2Cc3ccc(Nc4ccc(Cl)cc4)cc3C2=O)cc1 (stereo not drawn) [ALB-112166] | 1.04 | –
28 | – | CC(C(=O)OC(C)(C)C)c1ccc(N2Cc3ccc(N(C)C(=O)c4ccc(Cl)cc4)cc3C2=O)cc1 (stereo not drawn) [ALB-112167] | 1.01 | –
29 | – | CC(C(=O)OC(C)(C)C)c1ccc(N2Cc3ccc(Nc4ccccc4)cc3C2=O)cc1 (stereo not drawn) [ALB-112168] | 1.15 | –
30 | – | CC(C(=O)OC(C)(C)C)c1ccc(N2Cc3ccc(N(C)C(=O)c4ccccc4)cc3C2=O)cc1 (stereo not drawn) [ALB-112169] | 1.07 | –
31 | 1.04 | CNc1ccc2c(c1)C(=O)N(c1ccc(C(C)C(=O)OC(C)(C)C)cc1)C2 (stereo not drawn) [ALB-112170] | 1.27 | –
32 | – | CC(C(=O)OC(C)(C)C)c1ccc(N2Cc3ccccc3C2=O)c(-c2cccnc2)c1 (stereo not drawn) [ALB-112172] | 1.04 | –
33 | – | CC(C(=O)OC(C)(C)C)c1ccc(N2Cc3ccccc3C2=O)cc1-c1cccnc1 (stereo not drawn) [ALB-112173] | 1 | –
34 | – | Cc1ccc(-c2cccc3c2C(=O)N(c2ccc(C(C)C(=O)O)cc2)C3)cc1 (stereo not drawn) [ALB-112174] | 1.18 | –
35 | 16.9 | CC(C(=O)O)c1ccc(N2Cc3cccc(-c4ccc(Cl)cc4)c3C2=O)cc1 (stereo not drawn) [ALB-112175] | 1.37 | –
36 | – | CC(C(=O)OC(C)(C)C)c1ccc(N2Cc3c(cccc3-c3ccc(Cl)c(Cl)c3)C2=O)cc1 (stereo not drawn) [ALB-112186] | 1.08 | –
37 | – | CC(C(=O)OC(C)(C)C)c1ccc(N2Cc3c(cccc3-c3ccccc3)C2=O)cc1 (stereo not drawn) [ALB-112187] | 1.07 | –
38 | – | Cc1ccc(-c2cccc3c2CN(c2ccc(C(C)C(=O)OC(C)(C)C)cc2)C3=O)cc1 (stereo not drawn) [ALB-112188] | 1.08 | –
39 | – | CC(C(=O)OC(C)(C)C)c1ccc(N2Cc3c(cccc3-c3ccc(Cl)cc3)C2=O)cc1 (stereo not drawn) [ALB-112190] | 1.1 | –
40 | – | CC(C(=O)OC(C)(C)C)c1ccc(N2Cc3c(cccc3-c3cccs3)C2=O)cc1 (stereo not drawn) [ALB-112191] | 1.12 | –
41 | 5.72 | COC(=O)C(C)c1ccc(N2Cc3ccccc3C2)cc1 (stereo not drawn) [ALB-112192] | 1.41 | –
42 | – | CC(C(=O)OC(C)(C)C)c1ccc(N2Cc3ccccc3C2=O)c(-c2cncnc2)c1 (stereo not drawn) [ALB-112194] | 1.1 | –
43 | – | CC(C(=O)OC(C)(C)C)c1ccc(N2Cc3ccccc3C2=O)cc1-c1cncnc1 (stereo not drawn) [ALB-112195] | 1.06 | –
44 | – | CC(C(=O)OC(C)(C)C)c1ccc(N2Cc3ccccc3C2=O)c(-c2cccs2)c1 (stereo not drawn) [ALB-112196] | 1.09 | –
45 | – | CC(C(=O)OC(C)(C)C)c1ccc(N2Cc3ccccc3C2=O)cc1-c1ccccc1 (stereo not drawn) [ALB-112197] | 1.07 | –
46 | – | CC(C(=O)O)c1ccc(N2Cc3ccccc3C2=O)c(-c2cccnc2)c1 (stereo not drawn) [ALB-112198] | 1.12 | –
47 | – | CC(C(=O)O)c1ccc(N2Cc3ccccc3C2=O)cc1-c1cccnc1 (stereo not drawn) [ALB-112199] | 1.08 | –
48 | – | CC(C(=O)O)c1ccc(N2Cc3c(cccc3-c3ccccc3)C2=O)cc1 (stereo not drawn) [ALB-112220] | 1.22 | –

Row | EC50 (average) [µM] | Compound | maximal fold induction [1] | maximal fold induction (read-out: SMN Splice Reporter Assay (Example 10) Avg MaxFold Increase, maximum fold increase of reporter signal, average, heading: SMN Splice Reporter Assay Avg MaxFold Increase)
49 | – | Cc1ccc(-c2cccc3c2CN(c2ccc(C(C)C(=O)O)cc2)C3=O)cc1 (stereo not drawn) [ALB-112221] | 1.33 | –
50 | – | COc1ccc(-c2cccc3c2CN(c2ccc(C(C)C(=O)O)cc2)C3=O)cc1 (stereo not drawn) [ALB-112222] | 1.42 | –
51 | 11 | CC(C(=O)O)c1ccc(N2Cc3c(cccc3-c3ccc(Cl)cc3)C2=O)cc1 (stereo not drawn) [ALB-112223] | 1.31 | –
52 | – | CC(C(=O)O)c1ccc(N2Cc3c(cccc3-c3cccnc3)C2=O)cc1 (stereo not drawn) [ALB-112224] | 1.3 | –
53 | – | CC(C(=O)O)c1ccc(N2Cc3c(cccc3-c3cccs3)C2=O)cc1 (stereo not drawn) [ALB-112225] | 1.07 | –
54 | 26.2 | CC(C(=O)O)c1ccc(N2Cc3c(cccc3-c3ccc(Cl)c(Cl)c3)C2=O)cc1 (stereo not drawn) [ALB-112226] | 1.44 | –
55 | 0.669 | CC(C(=O)O)c1ccc(N2Cc3cc4ccsc4cc3C2=O)cc1 (stereo not drawn) [ALB-112228] | 1.27 | –
56 | – | CC(C(=O)O)c1ccc(N2Cc3cccnc3C2=O)cc1 (stereo not drawn) [ALB-112229a] | 1.13 | –
57 | – | CC(C)(C)OC(=O)Cc1ccc(N2Cc3ccccc3C2=O)cc1 [ALB-112230] | 1.1 | –
58 | – | CC(C(=O)O)c1ccc(N2Cc3ccccc3C2=O)c(-c2cncnc2)c1 (stereo not drawn) [ALB-112231] | 1.08 | –
59 | – | CC(C(=O)O)c1ccc(N2Cc3ccccc3C2=O)cc1-c1cncnc1 (stereo not drawn) [ALB-112232] | 1.05 | –
60 | – | CC(C(=O)O)c1ccc(N2Cc3ccccc3C2=O)c(-c2cccs2)c1 (stereo not drawn) [ALB-112233] | 1.03 | –
61 | 25.4 | CC(C(=O)O)c1ccc(N2Cc3ccccc3C2=O)cc1-c1ccccc1 (stereo not drawn) [ALB-112234] | 1.26 | –
62 | – | O=C(O)Cc1ccc(N2Cc3ccccc3C2=O)cc1 [ALB-112235] | 0.941 | –
63 | 4.21 | CC(C(=O)OC(C)(C)C)c1ccc(N2Cc3ccc(Br)cc3C2=O)cc1 (stereo not drawn) [ALB-112327] | 1.47 | –
64 | – | CC(C(=O)OC(C)(C)C)c1ccc(N2Cc3ccccc3C2=O)cc1-c1ccc(Cl)cc1 (stereo not drawn) [ALB-112328] | 1.04 | –
65 | – | CC(C(=O)O)c1ccc(N2Cc3ccccc3C2=O)cc1-c1ccc(Cl)cc1 (stereo not drawn) [ALB-112329] | 1.09 | –
66 | 0.259 | CC(C#N)c1ccc(N2Cc3ccccc3C2=O)cc1 (stereo not drawn) [ALB-112330] | 1.46 | –
67 | – | CC(C(=O)OC(C)(C)C)c1ccc(N2Cc3c(cccc3-c3cncnc3)C2=O)cc1 (stereo not drawn) [ALB-112349] | 1.06 | –
68 | – | CC(C(=O)OC(C)(C)C)c1ccc(N2Cc3c(C#N)cccc3C2=O)cc1 (stereo not drawn) [ALB-112350] | 1.18 | –
69 | – | CC(C(=O)O)c1ccc(N2Cc3c(C#N)cccc3C2=O)cc1 (stereo not drawn) [ALB-112351] | 1.21 | –
70 | 0.13 | CC(C(=O)O)c1ccc(N2Cc3ccc(Br)cc3C2=O)cc1 (stereo not drawn) [ALB-112352] | – | 1.12
71 | 16 | CC(C(=O)O)c1ccc(N2Cc3c(cccc3-c3cncnc3)C2=O)cc1 (stereo not drawn) [ALB-112353] | 1.53 | –
72 | 0.424 | CC(=O)c1ccc(N2Cc3ccccc3C2=O)cc1 [ALB-112360] | 1.14 | –
